Experimental data reported in patent US20230285353A1, “A CHEMICAL COCKTAIL DRIVING EXPANSION OF MYOGENIC STEM CELLS” (The Regents of the University of California, priority 2020, published 2023).

Tested on: neonatal dermal fibroblast-like cells
Assay: Screening small-molecules for myogenic induction (TnT+ cells)
Assay type: cell-based, mouse
Settings: for induction of myogenic cells, factor added individually to FR: basic medium with 20 μM F and R, bFGF 50 ng/ml or AA 50 μg/ml
Method: The next day the original medium was replaced with a screening medium containing small-molecule cocktails: KnockOut DMEM (Thermo Fisher Scientific), 10% knockout serum replacement (Thermo Fisher Scientific), 10% FBS (Hyclone, Inc.), 2 mM GlutaMAX (Thermo Fisher Scientific), 1% nonessential amino acids (Thermo Fisher Scientific), 1% penicillin-streptomycin (Thermo Fisher Scientific) and 20 ng/ml bFGF (Stemgent) containing the various small molecules, including valproic acid ([…]), tranylcypromine (T, 5 μM), forskolin (F, 10 μM), and 5-aza-2'deoxycytidine (5-Aza) (5-aza, 5 μM). The medium was changed once every 2-3 days. After optimizing the cocktail of small molecules and concentrations, the screening medium was replaced with Fb medium for further screening of additional candidates that may improve myogenic efficiency, including ascorbic acid (50 μg/ml, Sigma), BMP4 (20 ng/ml, Stemgent), Insulin (10 μg/ml, Stemgent), IGF-1 (50 ng/ml, R&D Systems), PDGF (50 ng/ml, R&D Systems), and bFGF (50 ng/ml, Stemgent Inc.). For cell immunostaining, cells were fixed in 4% paraformaldehyde for 15 minutes and permeabilized with 0.5% Triton-X 100 in PBS for 15 minutes. Cells were then blocked with 5% donkey serum for 1 hour and incubated overnight at 4° C. with primary antibodies (diluted in 5% donkey serum), including TnT (mouse mAb, DSHB), Myh1E (MF 20, mouse mAb, DSHB), Myh2 (SC-71, mouse mAb, DSHB), Myh3 (F1.652, mouse mAb, DSHB), Myh4 (BF-F3, mouse mAb, DSHB), Myh7 (BA-D5, mouse mAb, DSHB), Myh8 (Rabbit pAb, Thermo Fisher Scientific, PA5-72846), […]7) (dystrophin, mouse mAb, DSHB), MyoD (mouse mAb, DSHB), MyoG (mouse mAb, DSHB), Pax7 (mouse mAb, DSHB), Sox 10 (goat pAb, R&D Systems, AF2864), Ki 67 (rabbit mAb, Abcam, ab16667), FSP1 (rabbit mAb, Sigma, 07-2274), CD 90.2-FITC (rat mAb, Thermo Fisher Scientific, 11-0903-81), P75 (rabbit pAb, Abcam, ab8874) and PDGFR-α (rat mAb, Thermo Fisher Scientific, 13-1401-82). Then appropriate Alexa Fluor 488- or Alexa Fluor 546- or Alexa Fluor 647-conjugated secondary antibodies (Thermo Fisher Scientific) were used for 1 hour at room temperature.

Nc1ncn([C@H]2C[C@H](O)[C@@H](CO)O2)c(=O)n1 [5-Aza, 5-aza-2′deoxycytidine]
induction of TnT+ cells (5-Aza treatment of dermal cells): did not show any significant induction

O=C1O[C@H]([C@@H](O)CO)C(O)=C1O [AA, ascorbic acid]
induction of myogenic cells, factor added individually to FR: significantly enhanced

Cc1cccc(-c2[nH]ncc2-c2ccc3ncccc3n2)n1 [R, RepSox]
efficiency of CiMC expansion from dermal cells with single agent (F or R alone): almost negligible

basic fibroblast growth factor [bFGF]
induction of myogenic cells, factor added individually to FR: significantly enhanced
